Data from US12077503B2, “Substituted cyclic amides and their use as herbicides” (FMC CORPORATION, priority 2015, dated 2024).

Legend:
Assay type in all cases: in vivo
[1] = tested on: corn (Zea mays); test: Test G Post-Emergence Protocol; conditions: Zea mays, post-emergence, 312 h, read-out: Corn damage rating; for plant injury at 15.625 g/ha: 15.625 g ai/ha, evaluated after 13 days (100=total damage to plant; 0=no damage to plant); for plant injury at 62.5 g/ha: 62.5 g ai/ha; for plant injury at 62.5 g/ha / plant injury at 250 g/ha: evaluated after 13 days, 100=total damage to plant, 0=no damage to plant; for plant injury at 250 g/ha: 250 g ai/ha
How it was run: (§1)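 Seedlings grown 8 days in soil in a glasshouse (24/16 °C day/night, 14 h light, 65% humidity) were sprayed post-emergence with compound in acetone/water 50:50 plus 0.5% Tween 20 at 15.625, 62.5 or 250 g/ha. Damage was scored after 13 days on a 0–100 scale (100 = total damage).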

[2] = tested on: giant foxtail (Setaria faberi); test: Test G Post-Emergence Protocol; conditions: Setaria faberi, post-emergence, 312 h, read-out: Foxtail, Giant damage rating; for pest or weed control at 15.625 g/ha: 15.625 g ai/ha, evaluated after 13 days (100=total damage to plant; 0=no damage to plant); for pest or weed control at 62.5 g/ha: 62.5 g ai/ha; for pest or weed control at 62.5 g/ha / pest or weed control at 250 g/ha: evaluated after 13 days, 100=total damage to plant, 0=no damage to plant; for pest or weed control at 250 g/ha: 250 g ai/ha
How it was run: as §1

[3] = tested on: velvetleaf (Abutilon theophrasti); test: Test G Post-Emergence Protocol; conditions: Abutilon theophrasti, post-emergence, 312 h, read-out: Velvetleaf damage rating; for pest or weed control at 15.625 g/ha: 15.625 g ai/ha, evaluated after 13 days (100=total damage to plant; 0=no damage to plant); for pest or weed control at 62.5 g/ha: 62.5 g ai/ha; for pest or weed control at 62.5 g/ha / pest or weed control at 250 g/ha: evaluated after 13 days, 100=total damage to plant, 0=no damage to plant; for pest or weed control at 250 g/ha: 250 g ai/ha
How it was run: as §1

[4] = tested on: ivy-leaved morning glory (Ipomoea hederacea); test: Test G Post-Emergence Protocol; conditions: Ipomoea, post-emergence, 312 h, read-out: Morningglory, Ivy-leaved damage rating; for pest or weed control at 15.625 g/ha: 15.625 g ai/ha, evaluated after 13 days (100=total damage to plant; 0=no damage to plant); for pest or weed control at 62.5 g/ha: 62.5 g ai/ha; for pest or weed control at 62.5 g/ha / pest or weed control at 250 g/ha: evaluated after 13 days, 100=total damage to plant, 0=no damage to plant; for pest or weed control at 250 g/ha: 250 g ai/ha
How it was run: as §1

[5] = tested on: barnyardgrass (Echinochloa crus-galli); test: Test G Post-Emergence Protocol; conditions: Echinochloa crus-galli, post-emergence, 312 h, read-out: Barnyardgrass damage rating; for pest or weed control at 15.625 g/ha: 15.625 g ai/ha, evaluated after 13 days (100=total damage to plant; 0=no damage to plant); for pest or weed control at 62.5 g/ha: 62.5 g ai/ha; for pest or weed control at 62.5 g/ha / pest or weed control at 250 g/ha: evaluated after 13 days, 100=total damage to plant, 0=no damage to plant; for pest or weed control at 250 g/ha: 250 g ai/ha
How it was run: as §1

[6] = tested on: redroot pigweed (Amaranthus retroflexus); test: Test G Post-Emergence Protocol; conditions: Amaranthus retroflexus, post-emergence, 312 h, read-out: Pigweed, Redroot damage rating; for pest or weed control at 15.625 g/ha: 15.625 g ai/ha, evaluated after 13 days (100=total damage to plant; 0=no damage to plant); for pest or weed control at 62.5 g/ha: 62.5 g ai/ha; for pest or weed control at 62.5 g/ha / pest or weed control at 250 g/ha: evaluated after 13 days, 100=total damage to plant, 0=no damage to plant; for pest or weed control at 250 g/ha: 250 g ai/ha
How it was run: as §1

[7] = tested on: corn (Zea mays); test: Test G Pre-Emergence Protocol; conditions: Zea mays, pre-emergence, 312 h, evaluated after 13 days; for plant injury at 15.625 g/ha: 15.625 g ai/ha; for plant injury at 15.625 g/ha / plant injury at 250 g/ha: read-out: Corn damage rating (100=total damage to plant; 0=no damage to plant); for plant injury at 62.5 g/ha: 62.5 g ai/ha, 100=total damage to plant, 0=no damage to plant, read-out: Corn damage rating; for plant injury at 250 g/ha: 250 g ai/ha
How it was run: (§2)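 Under a 24/16° C day/night regime with 14 h light and 65% humidity, sown pots were sprayed after one day with compound (15.625, 62.5 or 250 g/ha; 50:50 acetone/water, 0.5% Tween 20). Damage was assessed visually 13 days later, 0 to 100.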

[8] = tested on: giant foxtail (Setaria faberi); test: Test G Pre-Emergence Protocol; conditions: Setaria faberi, pre-emergence, 312 h, evaluated after 13 days; for pest or weed control at 15.625 g/ha: 15.625 g ai/ha; for pest or weed control at 15.625 g/ha / pest or weed control at 250 g/ha: read-out: Foxtail, Giant damage rating (100=total damage to plant; 0=no damage to plant); for pest or weed control at 62.5 g/ha: 62.5 g ai/ha, 100=total damage to plant, 0=no damage to plant, read-out: Foxtail, Giant damage rating; for pest or weed control at 250 g/ha: 250 g ai/ha
How it was run: as §2

[9] = tested on: velvetleaf (Abutilon theophrasti); test: Test G Pre-Emergence Protocol; conditions: Abutilon theophrasti, pre-emergence, 312 h, evaluated after 13 days; for pest or weed control at 15.625 g/ha: 15.625 g ai/ha; for pest or weed control at 15.625 g/ha / pest or weed control at 250 g/ha: read-out: Velvetleaf damage rating (100=total damage to plant; 0=no damage to plant); for pest or weed control at 62.5 g/ha: 62.5 g ai/ha, 100=total damage to plant, 0=no damage to plant, read-out: Velvetleaf damage rating; for pest or weed control at 250 g/ha: 250 g ai/ha
How it was run: as §2

[10] = tested on: ivy-leaved morning glory (Ipomoea hederacea); test: Test G Pre-Emergence Protocol; conditions: Ipomoea, pre-emergence, 312 h, evaluated after 13 days; for pest or weed control at 15.625 g/ha: 15.625 g ai/ha; for pest or weed control at 15.625 g/ha / pest or weed control at 250 g/ha: read-out: Morningglory, Ivy-leaved damage rating (100=total damage to plant; 0=no damage to plant); for pest or weed control at 62.5 g/ha: 62.5 g ai/ha, 100=total damage to plant, 0=no damage to plant, read-out: Morningglory, Ivy-leaved damage rating; for pest or weed control at 250 g/ha: 250 g ai/ha
How it was run: as §2

[11] = tested on: barnyardgrass (Echinochloa crus-galli); test: Test G Pre-Emergence Protocol; conditions: Echinochloa crus-galli, pre-emergence, 312 h, evaluated after 13 days; for pest or weed control at 15.625 g/ha: 15.625 g ai/ha; for pest or weed control at 15.625 g/ha / pest or weed control at 250 g/ha: read-out: Barnyardgrass damage rating (100=total damage to plant; 0=no damage to plant); for pest or weed control at 62.5 g/ha: 62.5 g ai/ha, 100=total damage to plant, 0=no damage to plant, read-out: Barnyardgrass damage rating; for pest or weed control at 250 g/ha: 250 g ai/ha
How it was run: as §2

[12] = tested on: redroot pigweed (Amaranthus retroflexus); test: Test G Pre-Emergence Protocol; conditions: Amaranthus retroflexus, pre-emergence, 312 h, evaluated after 13 days; for pest or weed control at 15.625 g/ha: 15.625 g ai/ha; for pest or weed control at 15.625 g/ha / pest or weed control at 250 g/ha: read-out: Pigweed, Redroot damage rating (100=total damage to plant; 0=no damage to plant); for pest or weed control at 62.5 g/ha: 62.5 g ai/ha, 100=total damage to plant, 0=no damage to plant, read-out: Pigweed, Redroot damage rating; for pest or weed control at 250 g/ha: 250 g ai/ha
How it was run: as §2

Row | Compound | plant injury at 15.625 g/ha [1] [%] | plant injury at 62.5 g/ha [1] [%] | plant injury at 250 g/ha [1] [%] | pest or weed control at 15.625 g/ha [2] [%] | pest or weed control at 62.5 g/ha [2] [%] | pest or weed control at 250 g/ha [2] [%] | pest or weed control at 15.625 g/ha [3] [%] | pest or weed control at 62.5 g/ha [3] [%] | pest or weed control at 250 g/ha [3] [%] | pest or weed control at 15.625 g/ha [4] [%] | pest or weed control at 62.5 g/ha [4] [%] | pest or weed control at 250 g/ha [4] [%] | pest or weed control at 15.625 g/ha [5] [%] | pest or weed control at 62.5 g/ha [5] [%] | pest or weed control at 250 g/ha [5] [%] | pest or weed control at 15.625 g/ha [6] [%] | pest or weed control at 62.5 g/ha [6] [%] | pest or weed control at 250 g/ha [6] [%] | plant injury at 15.625 g/ha [7] [%] | plant injury at 62.5 g/ha [7] [%] | further results
1 | CN1C[C@@H](c2ccc(C(F)(F)F)cc2)[C@H](C(=O)Nc2ccc(F)nc2F)C1=O (racemic) [Compound 1650] | 10 | 50 | 70 | 70 | 80 | 80 | 0 | 20 | 40 | 20 | 10 | 20 | 40 | 80 | 80 | 10 | 70 | 80 | 0 | 0 | plant injury at 250 g/ha [7]: 80%; pest or weed control at 15.625 g/ha [8]: 40%; pest or weed control at 62.5 g/ha [8]: 90%; pest or weed control at 250 g/ha [8]: 90%; pest or weed control at 15.625 g/ha [9]: 0%; pest or weed control at 62.5 g/ha [9]: 0%; pest or weed control at 250 g/ha [9]: 50%; pest or weed control at 15.625 g/ha [10]: 0%; pest or weed control at 62.5 g/ha [10]: 0%; pest or weed control at 250 g/ha [10]: 0%; pest or weed control at 15.625 g/ha [11]: 10%; pest or weed control at 62.5 g/ha [11]: 70%; pest or weed control at 250 g/ha [11]: 90%; pest or weed control at 15.625 g/ha [12]: 0%; pest or weed control at 62.5 g/ha [12]: 70%; pest or weed control at 250 g/ha [12]: 80%
2 | CSc1ccncc1NC(=O)[C@H]1C(=O)N(C)C[C@@H]1c1ccc(C(F)(F)F)cc1 (racemic) [Compound 1749] | 0 | 0 | 0 | 0 | 0 | 0 | 0 | 0 | 0 | 0 | 0 | 0 | 0 | 0 | 0 | 0 | 0 | 0 | 0 | 0 | plant injury at 250 g/ha [7]: 0%; pest or weed control at 15.625 g/ha [8]: 0%; pest or weed control at 62.5 g/ha [8]: 0%; pest or weed control at 250 g/ha [8]: 0%; pest or weed control at 15.625 g/ha [9]: 0%; pest or weed control at 62.5 g/ha [9]: 0%; pest or weed control at 250 g/ha [9]: 0%; pest or weed control at 15.625 g/ha [10]: 0%; pest or weed control at 62.5 g/ha [10]: 0%; pest or weed control at 250 g/ha [10]: 0%; pest or weed control at 15.625 g/ha [11]: 0%; pest or weed control at 62.5 g/ha [11]: 0%; pest or weed control at 250 g/ha [11]: 0%; pest or weed control at 15.625 g/ha [12]: 0%; pest or weed control at 62.5 g/ha [12]: 0%; pest or weed control at 250 g/ha [12]: 0%
